We go through 8 compounds from US20250177450A1, “METHODS FOR ADMINISTERING FREEZE-DRIED PLATELET DERIVATIVE COMPOSITIONS TO SUBJECTS TREATED WITH A FACTOR XI INHIBITOR” (Cellphire, Inc., priority 2021, published 2025).

Where two headings read alike, the source gives them in different places.

Data set [1] deals with thrombin generation in platelet rich plasma. Description: Thrombin generation assay in dabigatran-treated PRP. The following applies: dabigatran (100 ng/mL), PRP reagent; 18.89 untreated. It counts as cell-based, human.
Description: • (1) Open CAT software; set up instrument; and prepare PRP reagent (including Tissue Factor and some phospholipids), calibrator, and fluoro-buffer according to manufacturer guidelines. • (2) Thaw warfarin or control plasma in 37° C. water bath for 5 minutes. • (3) Rehydrate thrombosomes with cell culture grade water for 10 minutes then dilute with Control Buffer to double target concentration. • (4) For each sample, combine 1:1 volumes of Control Buffer with or without thrombosomes and plasma. • (5) Using a multichannel pipette, add 20 μL of PRP reagent to each well. • (6) Add 80 μL of sample per well.
Data set [2] deals with occlusion of Platelet Rich Plasma (PRP).
Description: The T-TAS® instrument was prepared for use according to the manufacturer's instructions. AR Chips (Diapharma Cat. #TC0101) and AR Chip Calcium Corn Trypsin Inhibitor (CaCTI; Diapharma Cat. #TR0101) were warmed to room temperature. […] The sample was loaded and run on the T-TAS® according to the manufacturer's instructions.
The effect of cangrelor and ticagrelor on occlusion time of Platelet Rich Plasma (PRP) with and without FDPDs was assessed using the T-TAS® assay. The concentrations of the agents were as follows: cangrelor at 1 μM, ticagrelor at 500 ng/mL, FDPDs at 150 k/μL, and ADP at 2 μM. […] The number of trials per each assay is listed as the “(n=_)” values.
For data set [3] the following is noted: cited from earlier work.
For a further data set, the system named is NOD-SCID mice. Description: Tail snip bleeding time in clopidogrel-treated mice. Type of data set: in vivo, mouse. The following applies: clopidogrel 5 mg/kg for 3 days, untreated 758.6+/−623.4. The procedure: Mice were treated with clopidogrel at 5 mg/kg for 3 days. The mice were anesthetized, the tail end was snipped off at 1 mm diameter and submerged in warm saline and time to clot recorded. Animals were syringe injected, into a vein or artery, with saline or 1.6×10^9/kg of FDPDs, at the same time the tail was snipped, and the tail snip trial commenced. The time from tail snip to tail stop bleeding was recorded by visual inspection of cessation of blood loss.

Data set [4] has as its system New Zealand White Rabbits. The data set is described as follows: Ear bleed time in clopidogrel-treated rabbits. It counts as in vivo, rabbit. Conditions: clopidogrel 23 mg/kg for 5 days, untreated 87.1+/−18.2. The procedure: Rabbits were treated with clopidogrel at 23 mg/kg for 5 days. The rabbits were anesthetized, the ear was bled and time to clot recorded. Animals were treated, injected into a vein or artery, with saline or 1.6×10^9/kg of human FDPDs, at the same time the ear was bled, and the ear bleed trial commenced. The time from ear bleed to stop bleeding was recorded by visual inspection.

For data set [5], the system named is time to clot in pooled normal plasma. Description: Activated clotting time (ACT), heparin and protamine in pooled normal plasma. Type of data set: biochemical, human. Conditions: heparin titration. As to the method: This experiment assessed how clinical proportions of Heparin and Protamine affect FDPD function. FDPDs were prepared according to the procedure in Example 18. An Activating Clotting Time (ACT) assay was performed to measure time to clot and TGA was performed to measure thrombin generation. An initial Heparin titration run was performed using ACT to find the minimum Heparin dose needed to reach abnormal clot time.
Activated clotting time was measured using pooled normal plasma with heparin (H) and protamine (P) as labeled on the x-axis; ½ P, P, and 3/2 P represent protamine doses of 4, 8, and 12 μg/ml, respectively. FDPDs, (referred to as “Tsomes” in FIG. 33) were added at 10, 25 or 50 K/μl. […] “K” in the legend stands for 10^3 FDPDS. All samples were run in duplicate. N=2. The experiment was repeated on separate days to improve statistical relevance.

Data set [6] has as its system thrombus formation in GK PPP. The data set is described as follows: T-TAS AR chip, George King Platelet Poor Plasma with or without GPRP. It counts as biochemical, human. The following applies: GK PPP + 1 mM GPRP (No Tsomes). The procedure: In the Total Thrombus-formation Analysis System (T-TAS®, FUJIMORI KOGYO CO., LTD), the sample is forced through collagen-coated microchannels using mineral oil. Changes in pressure are used to assess thrombus formation. The Occlusion Start Time is time it takes to reach Δ10 kPa, and the Occlusion Time=time it takes to each Δ80 kPa using an AR chip (Zacros Item No, TC0101).
The effect of GPRP (1 mM) on occlusion activity was also assayed.

The test system of data set [7] is thrombus formation in whole blood. Description: T-TAS AR chip, rivaroxaban-anticoagulated whole blood. Type of data set: cell-based, human. The following applies: 9 uM dose (a pharmacological dose). The procedure: Rivaroxaban (sometimes herein called Riv) dose-response in whole blood was measured using T-TASR. An AR chip (Collagen+TF) was used. T-TAS® assays were performed according to Example 3. The donor platelets were used at 307 k/μL.
Thrombosomes were prepared consistent with the procedures described in U.S. Pat. No. 8,486,617 (such as, e.g., Examples 1-5) and U.S. Pat. No. 8,097,403 (such as, e.g., Examples 1-3), and rehydrated by addition of sterile water. T-TAS® assays were run according to Example 3 using 3 μM rivaroxaban and different concentrations of thrombosomes (FIG. 10A, Table 8). The ‘No Riv’ vertical line indicates the approximate occlusion time of a sample with no added rivaroxaban.

Setting [8] is: ADP (2 μM) stimulated PRP, cangrelor at 1 μM (n=4) or ticagrelor at 500 ng/mL (n=5), PRP alone 19.5±1.5.

`[H]/N=C(/N)c1ccc(NCc2nc3cc(C(=O)N(CCC(=O)O)c4ccccn4)ccc3n2C)cc1` [dabigatran]: the Time to peak in data set [1] stood at 34.67 min.
With `CC(=O)Oc1ccccc1C(=O)O` [aspirin, Acetylsalicylic acid], the occlusion time in data set [2] (PRP at 30K/μL, aspirin at 500 μM, PRP alone 25:56) was above 30 min. In addition, the peak concentration in data set [3] (single 500 mg dose IV) is 500 µM; in data set [3] (single 500 mg dose orally), 44 µM.
As for `COC(=O)[C@H](c1ccccc1Cl)N1CCc2sccc2C1` [clopidogrel], the bleed time is 1661 ± 257.9 s in the data set on NOD-SCID mice and 206.8 ± 104.2 s in data set [4].
On to Heparin, for which, in data set [5], the “minimum Heparin dose needed to reach abnormal clot formation” value is 0.8 U/mL.
As to `CSCCNc1nc(SCCC(F)(F)F)nc2c1ncn2[C@@H]1O[C@H](COP(=O)(O)OP(=O)(O)C(Cl)(Cl)P(=O)(O)O)[C@@H](O)[C@H]1O` [cangrelor], the occlusion time in data set [2] (setting [8]) is 28.0 ± 3.0 min.
`CCCSc1nc(N[C@@H]2C[C@H]2c2ccc(F)c(F)c2)c2nnn([C@@H]3C[C@H](OCCO)[C@@H](O)[C@H]3O)c2n1` [ticagrelor] yielded an occlusion time in data set [2] (setting [8]) of 28.0 ± 3.0 min.
Turning to GPRP, in data set [6], the “Area Under Curve” value is recorded as 52.43 and the “Occlusion Speed” value stood at 0 kPa/min.
Consider `O=C(NC[C@H]1CN(c2ccc(N3CCOCC3=O)cc2)C(=O)O1)c1ccc(Cl)s1` [Rivaroxaban], for which, in data set [7], the “occlusion and thrombus formation” value is given as “inhibits occlusion but not all thrombus formation”.
